A short description of test [1]: DPPH free radical scavenging assay. The settings on record: DPPH 0.004% w/v in methanol, absorbance 515 nm, 16 min, three replicates. As to the method: The antioxidant activity of the extract was determined at the Regional Center for Mycology and Biotechnology (RCMB) at Al-Azhar University by the DPPH free radical scavenging assay in triplicate, and average values were considered.
Freshly prepared (0.004% w/v) methanol solution of 2,2-diphenyl-1-picrylhydrazyl (DPPH) radical was prepared and stored at 10 °C in the dark. A methanol solution of the test compound was prepared. About 40 uL aliquot of the methanol solution was added to 3 mL of DPPH solution. Absorbance measurements were recorded immediately with a UV-visible spectrophotometer (Milton Roy, Spectronic 1201). The decrease in absorbance at 515 nm was determined continuously, with data being recorded at 1 min intervals until the absorbance stabilized (16 min). The absorbance of the DPPH radical without antioxidant (control) and the reference compound ascorbic acid were also measured. All the determinations were performed in three replicates and averaged. The percentage inhibition (PI) of the DPPH radical was calculated according to the formula:PI = [{(AC − AT)/AC} × 100] where AC = absorbance of the control at t = 0 min and AT = absorbance of the sample + DPPH at t = 16 min. A 50% inhibitory concentration (IC50) or the concentration required for 50% DPPH radical scavenging activity was calculated.
For orientation: DPPH is a stable violet radical that fades when it is reduced.

The subject of test [2] is Aspergillus fumigatus. Briefly: Antifungal screening, diffusion agar technique. It counts as cell-based. The conditions noted are these: RCMB002008; Aspergillus fumigatus (RCMB 002008); well 6.0 mm, 100 μL tested; three replicates; ketoconazole 100 μg/mL. As to the method: (§1) The complexes were tested in vitro using a diffusion agar technique; well diameter: 6.0 mm (100 μL tested) on four fungi (Aspergillus fumigatus (RCMB 002008), Candida albicans (RCMB 005003 (1) ATCC 10231), Cryptococcus neoformas (RCMB 0049001) and Syncephalastrum racemosum (RCMB 016001 (1)). The positive control was a fungicide (ketoconazole, 100 μg/mL) as well as four bacteria, two Gram-positive strains (Staphylococcus aureus (ATCC 25923) and Bacillus subtilis (RCMB 015 (1) NRRL B-543)), and two Gram-negative strains (Escherichia coli (ATCC 25922) and Proteus Vulgaris (RCMB 004 (1) ATCC 13315)). The positive control was Streptococcus (gentamycin, 4 μg/mL). The inhibitory activity of a compound against an organism is indicated by a clear area around the disc.

Test [3] relates to Candida albicans. The test can be described thus: Antifungal screening, diffusion agar technique. It is filed as cell-based. The settings on record: ATCC10231; Candida albicans (ATCC 10231); well 6.0 mm, 100 μL tested; three replicates; ketoconazole 100 μg/mL. As to the method:
as §1

In test [4] the test system is Cryptococcus neoformas. The test can be described thus: Antifungal screening, diffusion agar technique. It counts as cell-based. The conditions noted are these: RCMB0049001; Cryptococcus neoformas (RCMB 0049001); well 6.0 mm, 100 μL tested; three replicates; ketoconazole 100 μg/mL. As to the method: as §1
Test [5] relates to Syncephalastrum racemosum. The test can be described thus: Antifungal screening, diffusion agar technique. It is filed as cell-based. The settings on record: RCMB016001; Syncephalastrum racemosum (RCMB 016001); well 6.0 mm, 100 μL tested; three replicates; ketoconazole 100 μg/mL. As to the method: as §1
Test [6] has as its system A-549 cells (human lung cancer cell line). Briefly: Cytotoxicity against A-549 cells (crystal violet colorimetric viability, 72 h). It is filed as cell-based. The conditions noted are these: A-549 human lung cancer cell line, 72 h exposure, average of three independent experiments. As to the method:
Cancer is a type of malignant disease in which a group of cells appears to grow in an irregular pattern. The only way to treat this is through surgical intervention or chemotherapy, both of which have negative side effects. Although platinum-based complexes such as cis-platin have been used to treat cancer, it is not effective, so in vitro tests for complexes of manganese, cobalt, copper, chromium, and palladium were conducted against two cancer lines, respectively. A-549 and MRC-5 cells were used as test subjects for the cytotoxic activity of Schiff base and aminopyrimidyl complexes in the concentration range of […]. […] As the concentration of the complexes increased, cell viability decreased (Figure 10).
Figure 10 (a) A-549. The dose-response curves of the cytotoxicity of compounds (1–6). Cells were exposed to different concentrations of the compounds for 72 h. Cell viability was determined by a colorimetric method. (b) MRC-5cell lines. The dose-response curves of the cytotoxicity of compounds (1–6) Cells were exposed to different concentrations of the compounds for 72 h. Cell viability was determined by a colorimetric method.
A-549 cells (human Lung cancer cell line) were obtained from VACSERA Tissue Culture Unit.
It is composed of 0.5% (w/v) crystal violet and 50% methanol then made up to volume with ddH2O and filtered through a Whatmann No.1 filter paper. […]

The subject of test [7] is Bacillus subtilis. Briefly: Antibacterial screening, diffusion agar technique. It is filed as cell-based. The settings on record: Bacillus subtilis (NRRL B-543), Gram-positive; well 6.0 mm, 100 μL tested; three replicates; gentamycin 4 μg/mL. As to the method: as §1
Test [8] relates to Escherichia coli. Briefly: Antibacterial screening, diffusion agar technique. It counts as cell-based. The settings on record: Escherichia coli (ATCC 25922), Gram-negative; well 6.0 mm, 100 μL tested; three replicates; gentamycin 4 μg/mL. As to the method: as §1
The test system of test [9] is Proteus vulgaris. The test can be described thus: Antibacterial screening, diffusion agar technique. It is filed as cell-based. The conditions noted are these: Proteus vulgaris (ATCC 13315), Gram-negative; well 6.0 mm, 100 μL tested; three replicates; gentamycin 4 μg/mL. As to the method: as §1
For test [10], the system named is Staphylococcus aureus. The test can be described thus: Antibacterial screening, diffusion agar technique. It counts as cell-based. The settings on record: Staphylococcus aureus (ATCC 25923), Gram-positive; well 6.0 mm, 100 μL tested; three replicates; gentamycin 4 μg/mL. As to the method: as §1

≈ marks a conversion by molar mass, not a printed value.

The zone of inhibition is the extent of the growth-free halo in a diffusion test. High values mean a stronger effect on the plate, low ones a weaker effect on the plate.

For `O=C1O[C@H]([C@@H](O)CO)C(O)=C1O` [Ascorbic acid, reference compound], the “IC50 (antioxidant activity, DPPH radical scavenging)” value in [1] came out at 10.21 ± 0.77 mg/mL (≈ 58 mM).

As for `CC(=O)N1CCN(c2ccc(OCC3COC(Cn4ccnc4)(c4ccc(Cl)cc4Cl)O3)cc2)CC1` (stereo not shown) [Ketoconazole, reference compound], the zone of inhibition at 100 µg/mL in test [2] came out at 17.4 mm; in test [3], 20.4 mm; in test [4] it was 24.9 mm; in test [5] it was 15.3 mm.

On to `N.N.[Cl][Pt][Cl]` [cisplatin, reference compound], for which the “IC50 Value” in test [6] is 7.11 µg/mL.

For the compound Gentamycin [reference compound], the “Mean Zone of Inhibition” value was 25.93 mm in [7], 29.83 mm in test [8], 25.20 mm in [9] and 24.33 mm in [10].

For the origin of these results see article PMC10058022, “Physico-Chemical Study of Mn(II), Co(II), Cu(II), Cr(III), and Pd(II) Complexes with Schiff-Base and Aminopyrimidyl Derivatives and Anti-Cancer, Antioxidant, Antimicrobial Applications” (Molecules, 2023).
